Measurements from patent US7468446B2, “Substituted heterocyclic compounds and uses thereof” (Celgene Corporation, priority 2004, dated 2008).

| melting point [°C] | Compound |
| --- | --- |
| 99 to 101 | CCOc1cc(C(=CC#N)c2ccc3c(c2)OCCN3C)ccc1OC (mixture of isomers) [compound 3, (E/Z) 3-(3-Ethoxy-4-methoxy-phenyl)-3-(4-methyl-3,4-dihydro-2H-benzo[1,4]oxazin-7-yl)-acrylonitrile] |
| 114 to 116 | CCOc1cc(C(=CC#N)c2ccc3ncccc3c2)ccc1OC (mixture of isomers) [compound 5, (E/Z) 3-(3-Ethoxy-4-methoxy-phenyl)-3-quinolin-6-yl-acrylonitrile] |
| 49 to 51 | CCOc1cc(C(=CC#N)c2ccc3c(c2)CCO3)ccc1OC (mixture of isomers) [compound 1, (E/Z) 3-(2,3-Dihydro-benzofuran-5-yl)-3-(3-ethoxy-4-methoxy-phenyl)-acrylonitrile] |
| 132 to 134 | CCOc1cc(C(=CC#N)c2ccc3cc[nH]c3c2)ccc1OC (mixture of isomers) [compound 8, (E/Z)-3-(3-Ethoxy-4-methoxy-phenyl)-3-(1H-indol-6-yl)-acrylonitrile] |
| 95 to 97 | CCOc1cc(C(=CC#N)c2ccc3occc3c2)ccc1OC (mixture of isomers) [compound 10, (E/Z)-3-Benzofuran-5-yl-3-(3-ethoxy-4-methoxy-phenyl)-acrylonitrile] |
| 142 to 144 | COc1cc(OC)cc(C(=CC#N)c2ccc3ncccc3c2)c1 (mixture of isomers) [compound 6, (E/Z) 3-(3,5-Dimethoxy-phenyl)-3-quinolin-6-yl-acrylonitrile] |
| 119 to 121 | COc1cc(OC)cc(C(=CC#N)c2ccc3c(c2)OCCN3C)c1 [compound 2, 3-(3,5-Dimethoxy-phenyl)-3-(4-methyl-3,4-dihydro-2H-benzo[1,4]oxazin-7-yl)-acrylonitrile] |
| 117 to 119 | COc1cc(OC)cc(C(=CC#N)c2ccc3ccn(C)c3c2)c1 (mixture of isomers) [compound 7, (E/Z)-3-(3,5-Dimethoxy-phenyl)-3-(1-methyl-1H-indol-6-yl)-acrylonitrile] |
| 180 to 182 | CCOc1cc(C(=CC#N)c2ccc3c(c2)nnn3C)ccc1OC (mixture of isomers) [compound 4, (E/Z) 3-(3-Ethoxy-4-methoxy-phenyl)-3-(1-methyl-1H-benzotriazol-5-yl)-acrylonitrile] |
